Target: T1, Human KDR (Homo sapiens, UniProt P35968)
T1 construct: expressed in transfected cells; host or cells: NIH3T3 cells (mouse fibroblasts)
Assay: Inhibition of KDR phosphorylation in human KDR-transfected NIH3T3 cells (ELISA)
Format: cell-based
Settings: for Selection ratio (KDR phosphorylation IC50 / c-fms phosphorylation IC50): class 0-3; for IC50: human KDR-transfected NIH3T3 cells, VEGF 100 ng/ml, ELISA, read-out: KDR phosphorylation 50% inhibitory concentration (IC50)
Experimental: Human KDR-transfected NIH3T3 cells (Sawano A et al., Cell Growth & Differentiation, 7, 213-221 (1996)) were cultured in a DMEM medium containing 10% fetal calf serum (purchased from GIBCO BRL) within a 5% carbon dioxide incubator until 50 to 70% confluent. The harvested cells were seeded into wells, containing the same medium, in a collagen type 1 coat 96-well flat-bottom plate in an amount of 1.5×10^4 per well, and cultured at 37° C. overnight. The medium was replaced with a 0.1% fetal calf serum-containing DMEM medium. The test compound dissolved in dimethyl sulfoxide was added to each well, and the cultivation was continued at 37° C. for additional one hr. A human recombinant vascular endothelial growth factor (hereinafter abbreviated to “VEGF”) was added to a final concentration of 100 ng/ml, followed by stimulation of cells at 37° C. for 2 min. The medium was removed, and the cells were washed with phosphate buffered saline (pH 7.4). A solubilization buffer (50 μl) (20 mM HEPES (pH 7.4), 150 mM NaCl, 0.2% Triton X-100, 10% glycerol, 5 mM sodium orthovanadylate, 5 mM disodium ethylenediaminetetraacetate, and 2 mM Na4P2O7) was then added thereto. The mixture was shaken at 4° C. for 2 hr to prepare a cell extract.
Separately, phosphate buffered saline (50 μl, pH 7.4) containing 5 μg/ml of anti-phospho-tyrosine antibody (PY20; purchased from Transduction Laboratories) was added to a microplate for ELISA (Maxisorp; purchased from NUNC), followed by standing at 4° C. overnight to be immobilized on the wells. After washing of the plate, 300 μl of a blocking solution was added, followed by standing at room temperature for 2 hr to perform blocking. After washing, the whole cell extract was transferred and was allowed to stand at 4° C. overnight. After washing, an anti-KDR antibody (purchased from Santa Cruz Biotechnology) was allowed to react at room temperature for one hr. Further, after washing, a peroxidase-labeled anti-rabbit Ig antibody (purchased from Amersham) was allowed to react at room temperature for one hr. After washing, a chromophoric substrate for peroxidase (purchased from Sumitomo Bakelite Co., Ltd.) was added thereto to initiate a reaction. After a suitable level of color development, a reaction termination solution was added to stop the reaction, and the absorbance at 450 nm was measured with a microplate reader. The KDR phosphorylation activity for each well was determined by presuming the absorbance without the addition of the test compound and with the addition of VEGF to be 100% KDR phosphorylation activity and the absorbance without the addition of the test compound and VEGF to be 0% KDR phosphorylation activity. The concentration of the test compound was varied on several levels, the KDR phosphorylation inhibitory rate was determined for each case, and the concentration of the test compound necessary for inhibiting 50% of KDR phosphorylation (IC50) was calculated.

T1 sequence (P35968 20-1356): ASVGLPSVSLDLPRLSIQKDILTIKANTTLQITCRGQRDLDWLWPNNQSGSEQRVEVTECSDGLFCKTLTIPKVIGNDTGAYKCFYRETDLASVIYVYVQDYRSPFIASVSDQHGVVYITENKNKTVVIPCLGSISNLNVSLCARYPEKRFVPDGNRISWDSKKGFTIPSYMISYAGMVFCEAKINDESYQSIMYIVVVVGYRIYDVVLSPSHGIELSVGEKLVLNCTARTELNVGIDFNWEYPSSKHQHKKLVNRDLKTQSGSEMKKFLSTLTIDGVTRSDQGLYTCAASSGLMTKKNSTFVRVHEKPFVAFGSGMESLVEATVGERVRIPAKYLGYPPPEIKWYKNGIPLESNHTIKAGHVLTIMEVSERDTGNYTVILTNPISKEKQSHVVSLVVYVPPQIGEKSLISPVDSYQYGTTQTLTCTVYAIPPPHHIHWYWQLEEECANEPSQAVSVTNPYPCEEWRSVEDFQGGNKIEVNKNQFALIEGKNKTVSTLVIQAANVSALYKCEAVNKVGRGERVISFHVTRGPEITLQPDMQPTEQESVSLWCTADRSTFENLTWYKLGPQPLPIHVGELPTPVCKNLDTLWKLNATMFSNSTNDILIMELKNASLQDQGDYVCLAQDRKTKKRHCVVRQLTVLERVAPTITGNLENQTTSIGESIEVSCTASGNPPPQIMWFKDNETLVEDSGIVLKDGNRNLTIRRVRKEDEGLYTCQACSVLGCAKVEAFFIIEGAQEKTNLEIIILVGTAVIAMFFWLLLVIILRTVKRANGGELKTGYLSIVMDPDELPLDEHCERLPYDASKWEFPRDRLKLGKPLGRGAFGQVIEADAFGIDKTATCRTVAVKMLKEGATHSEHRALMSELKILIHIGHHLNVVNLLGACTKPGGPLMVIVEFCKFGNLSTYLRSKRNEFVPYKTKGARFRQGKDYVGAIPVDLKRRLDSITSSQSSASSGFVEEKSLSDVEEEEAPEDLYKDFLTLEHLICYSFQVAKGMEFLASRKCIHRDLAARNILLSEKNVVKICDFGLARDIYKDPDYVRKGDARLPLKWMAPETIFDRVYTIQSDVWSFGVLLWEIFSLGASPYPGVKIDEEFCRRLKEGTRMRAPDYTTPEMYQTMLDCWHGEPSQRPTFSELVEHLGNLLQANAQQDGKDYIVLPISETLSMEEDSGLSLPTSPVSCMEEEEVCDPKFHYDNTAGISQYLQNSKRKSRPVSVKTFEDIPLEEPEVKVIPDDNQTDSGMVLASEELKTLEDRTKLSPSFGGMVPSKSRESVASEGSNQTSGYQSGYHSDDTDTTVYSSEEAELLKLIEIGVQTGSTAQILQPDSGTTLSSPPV

| IC50 | SMILES | Selection ratio (KDR phosphorylation IC50 / c-fms phosphorylation IC50) |
| --- | --- | --- |
| 1 nM | COc1cc2nccc(Oc3ccc(NC(=O)NC(C)c4ccc(F)cc4)c(Cl)c3)c2cc1OC (stereo not shown) [Example 4, N-{2-Chloro-4-[(6,7-dimethoxy-4-quinolyl)oxy]phenyl}-N′-[1-(4-fluorophenyl)ethyl]urea] | 0 (KDR phosphorylation 50% inhibitory concentration [μM]/c-fms phosphorylation 50% inhibitory concentration [μM] was less than 5) |
| 2.8 nM | COc1cc2nccc(Oc3ccc(NC(=O)N[C@H](C)c4ccc(F)cc4)cc3Cl)c2cc1OC [Example 12, N-{3-Chloro-4-[(6,7-dimethoxy-4-quinolyl)oxy]phenyl}-N′-[(1R)-1-(4-fluorophenyl)ethyl]urea] | 0 (KDR phosphorylation 50% inhibitory concentration [μM]/c-fms phosphorylation 50% inhibitory concentration [μM] was less than 5) |
| 296 nM | COc1cc2nccc(Oc3ccc(NC(=O)N[C@@H](C)c4ccc(Br)cc4)cc3)c2cc1OC [Example 34, N-[(1S)-1-(4-Bromophenyl)ethyl]-N′-{4-[(6,7-dimethoxy-4-quinolyl)oxy]phenyl}urea] | 2 (when the value was 10 or more) |
| 90.9 nM | COc1cc2nccc(Oc3ccc(NC(=O)NC(C)c4ncc(C)s4)c(C)c3)c2cc1OC (stereo not shown) [Example 103, N-{4-[(6,7-Dimethoxy-4-quinolyl)oxy]-2-methylphenyl}-N′-[1-(5-methyl-1,3-thiazol-2-yl)ethyl]urea] | 0 (KDR phosphorylation 50% inhibitory concentration [μM]/c-fms phosphorylation 50% inhibitory concentration [μM] was less than 5) |
| 146 nM | COc1cc2nccc(Oc3ccc(NC(=O)N[C@@H](C)c4ccc(F)cc4)c(C(F)(F)F)c3)c2cc1OC [Example 20, N-[4-[(6,7-Dimethoxy-4-quinolyl)oxy]-2-(trifluoromethyl)phenyl]-N′-[(1S)-1-(4-fluorophenyl)ethyl]urea] | 2 (when the value was 10 or more) |
| 1.6 nM | COc1cc2nccc(Oc3ccc(NC(=O)N[C@H](C)c4cccc(Br)c4)c(Cl)c3)c2cc1OC [Example 55, N-[(1R)-1-(3-Bromophenyl)ethyl]-N′-{2-chloro-4-[(6,7-dimethoxy-4-quinolyl)oxy]phenyl}urea] | 0 (KDR phosphorylation 50% inhibitory concentration [μM]/c-fms phosphorylation 50% inhibitory concentration [μM] was less than 5) |
| 28.8 nM | COc1cc2nccc(Oc3ccc(NC(=O)NC(C)c4nc(C)cs4)cc3)c2cc1OC (stereo not shown) [Example 91, N-{4-[(6,7-Dimethoxy-4-quinolyl)oxy]phenyl}-N′-[1-(4-methyl-1,3-thiazol-2-yl)ethyl]urea] | 1 (when the value was 5 or more) |
| 1.8 nM | COc1cc(Oc2ccnc3cc(OC)c(OC)cc23)ccc1NC(=O)N[C@H](C)c1ccc(F)cc1 [Example 18, N-{4-[(6,7-Dimethoxy-4-quinolyl)oxy]-2-methoxyphenyl}-N′-[(1R)-1-(4-fluorophenyl)ethyl]urea] | 0 (KDR phosphorylation 50% inhibitory concentration [μM]/c-fms phosphorylation 50% inhibitory concentration [μM] was less than 5) |
| 1 nM | COc1cc2nccc(Oc3ccc(NC(=O)NC(C)c4ccc(F)cc4)cc3F)c2cc1OC (stereo not shown) [Example 31, N-{4-[(6,7-Dimethoxy-4-quinolyl)oxy]-3-fluorophenyl}-N′-[1-(4-fluorophenyl)ethyl]urea] | 0 (KDR phosphorylation 50% inhibitory concentration [μM]/c-fms phosphorylation 50% inhibitory concentration [μM] was less than 5) |
| 7.9 nM | COc1cc2nccc(Oc3ccc(NC(=O)NC(C)c4nccs4)c(C(F)(F)F)c3)c2cc1OC (stereo not shown) [Example 83, N-[4-[(6,7-Dimethoxy-4-quinolyl)oxy]-2-(trifluoromethyl)phenyl]-N′-[1-(1,3-thiazol-2-yl)ethyl]urea] | 0 (KDR phosphorylation 50% inhibitory concentration [μM]/c-fms phosphorylation 50% inhibitory concentration [μM] was less than 5) |
| 311 nM | COc1cc2nccc(Oc3ccc(NC(=O)NC(C)c4ncc(C)s4)cc3)c2cc1OC (stereo not shown) [Example 100, N-{4-[(6,7-Dimethoxy-4-quinolyl)oxy]phenyl}-N′-[1-(5-methyl-1,3-thiazol-2-yl)ethyl]urea] | 2 (when the value was 10 or more) |
| < 1 nM | COc1cc2nccc(Oc3ccc(NC(=O)N[C@H](C)c4ccc(F)cc4)cc3F)c2cc1OC [Example 33, N-{4-[(6,7-Dimethoxy-4-quinolyl)oxy]-3-fluorophenyl}-N′-[(1R)-1-(4-fluorophenyl)ethyl]urea] | 0 (KDR phosphorylation 50% inhibitory concentration [μM]/c-fms phosphorylation 50% inhibitory concentration [μM] was less than 5) |
| 661 nM | COc1cc2nccc(Oc3ccc(NC(=O)N[C@@H](C)c4nccs4)c(C(F)(F)F)c3)c2cc1OC [Example 84, N-[4-[(6,7-Dimethoxy-4-quinolyl)oxy]-2-(trifluoromethyl)phenyl]-N′-[(1S)-1-(1,3-thiazol-2-yl)ethyl]urea] | 3 (when the value was 50 or more) |
| 19.2 nM | COc1cc2nccc(Oc3ccc(NC(=O)N[C@H](C)c4cccc(Br)c4)cc3OC)c2cc1OC [Example 61, N-[(1R)-1-(3-Bromophenyl)ethyl]-N′-{4-[(6,7-dimethoxy-4-quinolyl)oxy]-3-methoxyphenyl}urea] | 0 (KDR phosphorylation 50% inhibitory concentration [μM]/c-fms phosphorylation 50% inhibitory concentration [μM] was less than 5) |
| 390 nM | COc1cc2nccc(Oc3cc(C)c(NC(=O)N[C@@H](C)c4ccc(F)cc4)cc3C)c2cc1OC [Example 8, N-{4-[(6,7-Dimethoxy-4-quinolyl)oxy]-2,5-dimethylphenyl}-N′-[(1S)-1-(4-fluorophenyl)ethyl]urea] | 2 (when the value was 10 or more) |
| 21.4 nM | COc1cc2nccc(Oc3ccc(NC(=O)N[C@@H](C)c4ccc(F)cc4)c(Cl)c3)c2cc1OC [Example 5, N-{2-Chloro-4-[(6,7-dimethoxy-4-quinolyl)oxy]phenyl}-N′-[(1S)-1-(4-fluorophenyl)ethyl]urea] | 1 (when the value was 5 or more) |
| < 1 nM | COc1cc2nccc(Oc3ccc(NC(=O)N[C@H](C)c4ccc(F)cc4)c(F)c3)c2cc1OC [Example 30, N-{4-[(6,7-Dimethoxy-4-quinolyl)oxy]-2-fluorophenyl}-N′-[(1R)-1-(4-fluorophenyl)ethyl]urea] | 0 (KDR phosphorylation 50% inhibitory concentration [μM]/c-fms phosphorylation 50% inhibitory concentration [μM] was less than 5) |
| 3.1 nM | COc1cc2nccc(Oc3cc(C)c(NC(=O)NC(C)c4ccc(F)cc4)cc3C)c2cc1OC (stereo not shown) [Example 7, N-{4-[(6,7-Dimethoxy-4-quinolyl)oxy]-2,5-dimethylphenyl}-N′-[1-(4-fluorophenyl)ethyl]urea] | 0 (KDR phosphorylation 50% inhibitory concentration [μM]/c-fms phosphorylation 50% inhibitory concentration [μM] was less than 5) |
| 111 nM | COc1cc(Oc2ccnc3cc(OC)c(OC)cc23)ccc1NC(=O)NC(C)c1nc(C)cs1 (stereo not shown) [Example 90, N-{4-[(6,7-Dimethoxy-4-quinolyl)oxy]-2-methoxyphenyl}-N′-[1-(4-methyl-1,3-thiazol-2-yl)ethyl]urea] | 2 (when the value was 10 or more) |
| < 1 nM | COc1cc2nccc(Oc3ccc(NC(=O)NC(C)c4ccc(F)cc4)c(C)c3)c2cc1OC (stereo not shown) [Example 13, N-{4-[(6,7-Dimethoxy-4-quinolyl)oxy]-2-methylphenyl}-N′-[1-(4-fluorophenyl)ethyl]urea] | 0 (KDR phosphorylation 50% inhibitory concentration [μM]/c-fms phosphorylation 50% inhibitory concentration [μM] was less than 5) |
